One test concerns the target CDK2/Cyclin E (Homo sapiens (Human), UniProt P24941). Nature of the test: Biochemical CDK inhibition assay (Caliper mobility shift), CDK2/Cyclin E. The note with it: 1.0 mM ATP or ATP Km, 1.25 nM enzyme, apparent IC50, read-out: CDK2/cyclin E1 IC50. As for the experimental part: (§1) Inhibitory effects of the compounds of the disclosure were measured in biochemical assays that measure the enzymatic phosphorylation activity of CDK enzyme in complex of Cyclin proteins phosphorylates 7.5 micromolar fluorescently labelled peptide substrate, 5-FAM-QSPKKG-CONH2, (FL-Peptide 18, Perkin Elmer, 760362) in the presence of adenosine-5′-triphosphate (ATP) and varying concentrations of the test compound in 100 mM 2-[4-(2-hydroxyethyl)piperazin-1-yl]ethanesulfonic acid (HEPES), pH 7.5, 10 mM MgCl2, 0.015% Brij-35, 1 mM dithiothreitol (DTT), 1.0% dimethylsulfoxide (DMSO). Assays were performed at 1.0 mM ATP or at ATP Km of the CDK enzymes in complex with Cyclin proteins. Reactions proceeded until between 10% to 20% total peptides were phosphorylated at room temperature (25° C.) and were terminated with 35 mM 2,2′,2″,2′″-(ethane-1,2-diyldinitrilo)tetraacetic acid (EDTA). Product was detected using the Caliper mobility shift detection method where the phosphorylated peptide (product) and substrate were electrophoretically separated and measured. Percent activity was plotted against log concentration of compound and points to generate an apparent IC50. The following CDK enzymes in complex with different cyclin proteins were used in these assays: • CDK1/Cyclin B1, GST-tag (BPS, 40454), 1.5 nM used in the assay • CDK2/Cyclin E (Eurofins, 14-475), 1.25 nM used in the assays
(§2) For inhibitory activity against CDK2/Cyclin […], the following designations are used: ≤10 nM=A; >10-20 nM=B; >20-30 nM=C; >30-100 nM=D and >100=E. For inhibition CDK1/Cyclin B1, GST-tag: ≥500 nM=A; 100-<500 nM=B; <100 nM=C.

A further test addresses CDK1/Cyclin B1, GST-tag (Homo sapiens (Human), UniProt P06493). Nature of the test: Biochemical CDK inhibition assay (Caliper mobility shift), CDK1/Cyclin B1. The conditions noted are these: 1.0 mM ATP or ATP Km, 1.5 nM enzyme, apparent IC50. How it is done:
as §1, §2

Bounds are passed on as bounds.

Sequence of CDK1/Cyclin B1, GST-tag (P06493 whole entry): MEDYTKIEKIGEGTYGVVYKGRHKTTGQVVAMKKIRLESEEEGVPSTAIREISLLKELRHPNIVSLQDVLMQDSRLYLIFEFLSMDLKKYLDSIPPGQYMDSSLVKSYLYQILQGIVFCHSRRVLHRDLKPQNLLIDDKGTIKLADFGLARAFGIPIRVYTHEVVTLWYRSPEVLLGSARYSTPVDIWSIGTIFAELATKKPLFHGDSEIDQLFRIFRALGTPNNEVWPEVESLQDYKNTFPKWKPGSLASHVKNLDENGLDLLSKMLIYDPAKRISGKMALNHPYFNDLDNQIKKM
Sequence of CDK1/Cyclin B1, GST-tag (P14635 whole entry partner): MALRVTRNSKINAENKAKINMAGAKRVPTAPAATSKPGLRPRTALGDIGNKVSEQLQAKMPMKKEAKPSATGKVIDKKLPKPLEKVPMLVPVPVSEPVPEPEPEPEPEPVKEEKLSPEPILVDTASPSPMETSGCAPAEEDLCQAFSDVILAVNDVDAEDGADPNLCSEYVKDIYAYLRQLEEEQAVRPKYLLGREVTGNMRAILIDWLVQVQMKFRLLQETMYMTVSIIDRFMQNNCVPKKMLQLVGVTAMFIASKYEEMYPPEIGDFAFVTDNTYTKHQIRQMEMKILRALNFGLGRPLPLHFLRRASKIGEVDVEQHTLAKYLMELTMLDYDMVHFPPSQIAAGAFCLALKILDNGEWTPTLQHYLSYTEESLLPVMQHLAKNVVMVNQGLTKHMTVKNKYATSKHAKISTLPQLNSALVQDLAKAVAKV

As for `CC(C)(O)c1cnc(Nc2cc([C@H]3CC[C@@H](OC(=O)N4CCC4(C)C)C3)[nH]n2)cn1` [Example 50, (1R,3S)-3-(3-((5-(2-hydroxypropan-2-yl)pyrazin-2-yl)amino)-1H-pyrazol-5-yl)cyclopentyl 2,2-dimethylazetidine-1-carboxylate], the IC50 is ≤ 10 nM at CDK2/Cyclin E and < 100 nM at CDK1/Cyclin B1, GST-tag.

Take `CC(C)NC(=O)O[C@@H]1CC[C@H](c2cc(Nc3cnc(C#N)cn3)n[nH]2)C1` [Example 53, (1R,3S)-3-(3-((5-cyanopyrazin-2-yl)amino)-1H-pyrazol-5-yl)cyclopentyl isopropylcarbamate]: the IC50 on CDK2/Cyclin E was ≤ 10 nM; at CDK1/Cyclin B1, GST-tag it was 100 to 500 nM.

As for `CNC(=O)O[C@@H]1CC[C@H](c2cc(Nc3cncc(OCC4CC4)n3)n[nH]2)C1` [Example 56, (1R,3S)-3-(3-((6-(cyclopropylmethoxy)pyrazin-2-yl)amino)-1H-pyrazol-5-yl)cyclopentyl methylcarbamate], the IC50 at CDK2/Cyclin E is ≤ 10 nM; at CDK1/Cyclin B1, GST-tag it was < 100 nM.

The values above are taken from patent US20250074895A1, “CDK2 INHIBITORS AND METHODS OF MAKING AND USING SAME” (BLUEPRINT MEDICINES CORPORATION, priority 2021, published 2025).
